{"source": "patent US20170029451A1", "about": "“BRANCHED CHAIN ACYCLIC NUCLEOSIDE PHOSPHONATE ESTERS AND METHODS OF SYNTHESIS AND USES THEREOF” (CHIMERIX, INC., priority 2013, published 2017)", "key": {"[1]": {"tested_on": "Herpes Simplex Virus 1 (Strain E-377)", "assay": "Plaque reduction assay, HSV-1 in human foreskin fibroblast cells", "assay_type": "cell-based", "details": "Human alphaherpesvirus 1; Strain E-377, human foreskin fibroblast cells"}, "Epstein-Barr virus": {"tested_on": "Epstein-Barr virus", "assay": "DNA Hybridization Assay for EBV in Akata cells", "assay_type": "cell-based", "details": "human gammaherpesvirus 4, read-out: Efficacy DNA Hybridization Assay (EC50)", "protocol": "Akata cells latently infected with EBV were obtained from John Sixbey. The GS strain of HHV-6A was obtained through the NIH AIDS Research and Reference Reagent Program.\nEach experiment that evaluated the antiviral activity of the compounds included both positive and negative control compounds to ensure the performance of each assay. Concurrent assessment of cytotoxicity was also performed for each study at equivalent levels of compound exposure. When sufficient material was available, multiple assays were performed for each compound evaluation to obtain statistical data.\nAssays for EBV were performed in Akata cells that were induced to undergo a lytic infection with 50 μg/ml of a goat anti-human IgG antibody by standard methods. Experimental compounds were diluted in round bottom 96-well plates to yield concentrations ranging from 20 to 0.016 μM. Akata cells were added to the plates at a concentration of 4×10^4 cells per well and incubated for 72 h. For HHV-6 assays, compounds were serially diluted in 96-well plates then 1×10^4 uninfected HSB-2 or Molt-3 cells were added to each well. Infection was initiated by adding HHV-6A infected HSB-2 cells, or HHV-6B infected Molt-3 cells, at a ratio of approximately 1 infected cell for every 10 uninfected HSB-2 cells or Molt-3 cells respectively and incubated for 7 d at 37° C. […]"}, "in vitro [2]": {"assay": "in vitro", "details": "human"}, "in vitro [3]": {"assay": "in vitro", "details": "human", "remark": "listed apart in the source"}, "[4]": {"tested_on": "Human Cytomegalovirus (HCMV)", "assay": "HCMV EC50 in MRC-5 cells (qPCR of intracellular CMV DNA)", "assay_type": "cell-based", "details": "Human betaherpesvirus 5, MRC5", "protocol": "Costar 96-well tissue culture plates were seeded with 20,000 MRC-5 cells/well in EMEM containing 2% Hyclone Standard Fetal Bovine Serum and 1% Hyclone Penicillin and Streptomycin. Outer wells were not used to minimize the edge-effect produced by extended incubations. Cells were inoculated with HCMV at an MOI of 0.01. Serial dilutions of test compounds were added to the cells and plates were incubated for 7 days at 37° C. in 5% CO2. […] Culture medium was gently removed from infected cells after the 7-day incubation. The cells were rinsed twice with ice-cold PBS, and then freeze/thawed once. Each well was incubated with 200 μL lysis buffer for 2 hours at 55° C. Lysis buffer included 0.5 mg/mL protease K, 50 mM KCl, 10 mM Tris-Cl pH 8.0, 2.5 mM MgCl2, 0.45% IGEPAL, and 0.45% Tween-20 dissolved in DEPC-treated water. Intracellular CMV DNA was measured by quantitative polymerase chain reaction (qPCR) using forward and reverse HCMV PCR primers, and a FAM-labeled probe. Absolute quantitation of viral copy number was performed using a standard curve with dilutions of a HCMV DNA amplicon containing sequences homologous to the amplified fragment. The following qPCR amplification conditions were used: 1 cycle at 95° C. for 10 minutes, followed by 45 cycles of 95° C. for 15 seconds and 60° C. for 60 seconds. The qPCR reactions were performed using an Applied Biosystems 7500 real Time PCR System. Gen 5 software (BioTek Instruments, Inc.) was used to calculate the concentration which inhibited the viral DNA levels of HCMV-infected MRC-5 cells by 50% (EC50)."}, "[5]": {"assay": "Cytotoxicity (CC50) in MT4 cells", "assay_type": "cell-based", "details": "human", "protocol": "Costar 96-well tissue culture plates were seeded with 5,000 MT4 cells (NIH AIDS Reagents Program)/well in RPMI (Lonza, Cat 12-11F) containing 10% Hyclone Standard Fetal Bovine Serum (FBS, Cat 5H30088.03), 1% Hyclone Penicillin and Streptomycin (Cat SV30010), and 2 mM Lonza L-Glutamine (Cat 17-605E). Outer wells were not used to minimize the edge-effect produced by extended incubations. Serial dilutions of test compounds were added to the cells and plates were incubated for 6 days at 37° C. in 5% CO2. After 6 days of incubation 40 μL of Cell Titer 96® Aqueous MTS Reagent (Promega, G111) was added as directed by manufacturer to the 200 μL media in each well and incubated at 37° C. until the untreated-cell controls developed an 490 nm absorbance between 1.1 and 1.8. The final absorbance readings were read using a BioTek Synergy 2, and Gen 5 software (BioTek Instruments, Inc.) was used to calculate the concentration which inhibited MT4 cells by 50% (CC50)."}, "[6]": {"tested_on": "Influenza virus A/CA/10/2009", "assay": "microbe, parasite or virus in culture", "assay_type": "cell-based", "details": "unidentified influenza virus, MDCK, read-out: A/CA/10/2009 (EC50, μM)"}, "[7]": {"tested_on": "Influenza virus B/FL/4/2006", "assay": "microbe, parasite or virus in culture", "assay_type": "cell-based", "details": "unidentified influenza virus, MDCK, read-out: B/FL/4/2006 (EC50, μM)"}, "in vitro [8]": {"assay": "in vitro", "details": "dog"}, "[9]": {"tested_on": "Vaccinia Virus (Strain Copenhagen)", "assay": "microbe, parasite or virus in culture", "assay_type": "cell-based", "details": "Orthopoxvirus vaccinia, Fibroblast, read-out: VACV EC50, μM"}, "[10]": {"tested_on": "Cowpox Virus (Strain Brighton)", "assay": "microbe, parasite or virus in culture", "assay_type": "cell-based", "details": "Fibroblast, read-out: CPXV EC50, μM"}, "[11]": {"tested_on": "human foreskin fibroblast cells", "assay": "Neutral red cytotoxicity assay in human foreskin fibroblast cells", "details": "read-out: VACV CC50, μm, parallel to VACV assay (second printing of Table 4)"}, "HCMV (Strain AD169)": {"tested_on": "HCMV (Strain AD169)", "assay": "Plaque reduction assay, HCMV AD169 in human foreskin fibroblast cells", "assay_type": "cell-based, Human Cytomegalovirus (HCMV)", "details": "Human betaherpesvirus 5, AD169, Fibroblast"}, "[12]": {"tested_on": "HCMV UL54 resistant mutant D542E (HDP-CDV^R)", "assay": "microbe, parasite or virus in culture", "assay_type": "cell-based, Human Cytomegalovirus (HCMV)", "details": "Human betaherpesvirus 5, Fibroblast"}, "[13]": {"tested_on": "HCMV UL54 resistant mutant GDG^RP53", "assay": "microbe, parasite or virus in culture", "assay_type": "cell-based, Human Cytomegalovirus (HCMV)", "details": "Human betaherpesvirus 5, Fibroblast"}, "[14]": {"tested_on": "HCMV UL54 resistant mutant 4955^R", "assay": "microbe, parasite or virus in culture", "assay_type": "cell-based, Human Cytomegalovirus (HCMV)", "details": "Human betaherpesvirus 5, Fibroblast"}, "BKV (Gardner strain)": {"tested_on": "BKV (Gardner strain)", "assay": "BKV EC50 in Vero cells (qPCR of supernatant BKV DNA)", "assay_type": "cell-based, BK virus (BKV)", "details": "Betapolyomavirus hominis; BKV in Vero cells (Table 7); read-out: BKV EC50", "protocol": "Costar 96-well tissue culture plates were seeded with 10,000 Vero cells/well in DMEM containing 2% Hyclone Standard Fetal Bovine Serum (FBS, Cat 5H30088.03) and 1% Hyclone Penicillin and Streptomycin. Outer wells were not used to minimize the edge-effect produced by extended incubations. Cells were inoculated with 115 BKV DNA copies/cell (ATCC, Gardner strain). Serial dilutions of test compounds were added to the cells and plates were incubated for 10 days at 37° C. in 5% CO2. After the 10-day incubation, 50 μL supernatant was mixed with 50 μL 2× lysis buffer that provided a final concentration 0.5 mg/mL protease K, 50 mM KCl, 10 mM Tris-Cl pH 8.0, 2.5 mM MgCl2, 0.45% IGEPAL, and 0.45% Tween-20 dissolved in DEPC-treated water. Each plate was incubated for 2 hours at 55° C. Supernatant BKV DNA was measured by quantitative polymerase chain reaction (qPCR) using forward and reverse BKV PCR primers, and a FAM-labeled probe. Absolute quantitation of viral copy number was performed using a standard curve with dilutions of a BKV DNA amplicon containing sequences homologous to the amplified fragment. The following qPCR amplification conditions were used: 1 cycle at 95° C. for 10 minutes, followed by 45 cycles of 95° C. for 15 seconds and 60° C. for 60 seconds. The qPCR reactions were performed using an Applied Biosystems 7500 real Time PCR System. Gen 5 software (BioTek Instruments, Inc.) was used to calculate the concentration which inhibited the viral DNA levels of BKV-infected Vero cells by 50% (EC50)."}, "[15]": {"details": "Mean XC50 (Table 9), read-out: HCMV EC50"}, "[16]": {"details": "Mean XC50 (Table 9), read-out: MT4 cytotoxicity CC50"}}, "note": "Where two headings read alike, the source gives them in different places."}
{"compound": "Nc1nc2c(ncn2COCCO)c(=O)[nH]1", "note": "[Acyclovir, reference compound]", "values": [{"measurement": "EC50", "setting": "[1]", "value": 2.2, "unit": "µM"}, {"measurement": "EC50", "setting": "Epstein-Barr virus", "value": 7, "unit": "µM"}, {"measurement": "CC50", "setting": "in vitro [2]", "value": "> 100", "unit": "µM"}, {"measurement": "CC50", "setting": "in vitro [3]", "value": "> 100", "unit": "µM"}]}
{"compound": "CCCCCCCCCCCCCCCCOCCCOP(=O)(O)CO[C@H](CO)Cn1ccc(=O)[nH]c1=O", "note": "[Compound 24]", "values": [{"measurement": "EC50", "setting": "[4]; [15]", "value": 0.008, "unit": "µM"}, {"measurement": "CC50 at 6 days", "setting": "[5]; [16]", "value": 13.5, "unit": "µM"}]}
{"compound": "CCOC(=O)C1=C[C@@H](OC(CC)CC)[C@H](NC(C)=O)[C@@H](N)C1", "note": "[Oseltamivir, reference compound]", "values": [{"measurement": "EC50", "setting": "[6]", "value": 0.17, "unit": "µM"}, {"measurement": "EC50", "setting": "[7]", "value": 16.2, "unit": "µM"}, {"measurement": "CC50", "setting": "in vitro [8]", "value": "> 20", "unit": "µM"}]}
{"compound": "Nc1ccn(C[C@@H](CO)OCP(=O)(O)O)c(=O)n1", "note": "[Cidofovir, reference compound]", "values": [{"measurement": "EC50", "setting": "[9]", "value": 22.4, "unit": "µM"}, {"measurement": "EC50", "setting": "[10]", "value": 30.5, "unit": "µM"}, {"measurement": "CC50", "setting": "in vitro [2]; CPXV CC50, μM, Human Foreskin Fibroblast Cells, parallel to CPXV assay", "value": "> 300", "unit": "µM"}, {"measurement": "CC50", "setting": "[11]", "value": "> 300", "unit": "µM"}]}
{"compound": "Nc1nc(O)c2ncn(COC(CO)CO)c2n1", "note": "[Ganciclovir, reference compound]", "values": [{"measurement": "EC50", "setting": "HCMV (Strain AD169); Strain AD169, human foreskin fibroblast cells, read-out: HCMV EC50", "value": 1.5, "unit": "µM"}, {"measurement": "CC50", "setting": "in vitro [2]", "value": "> 100", "unit": "µM"}]}
{"compound": "CCCCCCCCCCCCCCCCOCCCOP(=O)(O)CO[C@H](CO)Cn1ccc(N)nc1=O", "note": "[HDP-CDV, Hexadecyloxypropyl-Cidofovir, reference compound]", "values": [{"measurement": "EC50", "setting": "HCMV (Strain AD169); Virus AD169, human foreskin fibroblast cells (Table 3), read-out: EC50", "value": 0.001, "unit": "µM"}, {"measurement": "EC50", "setting": "[12]; read-out: EC50 μM, Virus D542E (HDP-CDV^R), human foreskin fibroblast cells", "value": 0.0295, "unit": "µM"}, {"measurement": "EC90", "setting": "[12]; read-out: EC90 μM", "value": 0.153, "unit": "µM"}, {"measurement": "EC50", "setting": "[13]; read-out: EC50 μM, Virus GDG^RP53, human foreskin fibroblast cells", "value": 0.0053, "unit": "µM"}, {"measurement": "EC90", "setting": "[13]; read-out: EC90 μM", "value": 0.0316, "unit": "µM"}, {"measurement": "EC50", "setting": "[14]; read-out: EC50 μM, Virus 4955^R, human foreskin fibroblast cells", "value": 0.0013, "unit": "µM"}, {"measurement": "EC90", "setting": "[14]; read-out: EC90 μM", "value": 0.006, "unit": "µM"}, {"measurement": "EC50", "setting": "[4]; HCMV in MRC-5 cells (Table 7), read-out: CMV EC50", "value": 0.0004, "unit": "µM"}, {"measurement": "EC50", "setting": "[4]; [15]", "value": 0.0003, "unit": "µM"}, {"measurement": "EC50", "setting": "BKV (Gardner strain)", "value": 0.018, "unit": "µM"}, {"measurement": "CC50 at 6 days", "setting": "[5]; MT4 cells (Table 7), read-out: MT4 CC50", "value": 0.06, "unit": "µM"}, {"measurement": "CC50 at 6 days", "setting": "[5]; [16]", "value": 0.06, "unit": "µM"}]}
